Assays:
CFTR ΔF508 mutant = target: T1, CFTR ΔF508 mutant (Homo sapiens, UniProt P13569, DEL508-508); assay: YFP-halide influx assay for the CFTR-ΔF508 mutation (CFBE41o- cells); assay type: cell-based; conditions: forskolin 10.67 μM; for EC50: from (1−F/F0) vs concentration plot
T1 construct: expressed in transfected cells; host or cells: CFBE41o- cells, adenoviral transduction
Procedure, shortened: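 EC50 derived from plotting 1−F/F0 (fluorescence 36 s after iodide injection over pre-injection value) against compound concentration. Cells: CFBE41o- transduced with ΔF508-CFTR and YFP quench reporter, corrected 24 h at 27° C or by a CFTR modulator at 37° C.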

CFTR G551D mutant = target: T2, CFTR G551D mutant (Homo sapiens, UniProt P13569, G551D); assay: YFP-halide influx assay for the CFTR-G551D mutation (HEK293 cells); assay type: cell-based; conditions: forskolin 10.67 μM
T2 construct: expressed in transfected cells; host or cells: HEK293 cells, reverse transfection with plasmids
T2 sequence (P13569 whole entry G551D): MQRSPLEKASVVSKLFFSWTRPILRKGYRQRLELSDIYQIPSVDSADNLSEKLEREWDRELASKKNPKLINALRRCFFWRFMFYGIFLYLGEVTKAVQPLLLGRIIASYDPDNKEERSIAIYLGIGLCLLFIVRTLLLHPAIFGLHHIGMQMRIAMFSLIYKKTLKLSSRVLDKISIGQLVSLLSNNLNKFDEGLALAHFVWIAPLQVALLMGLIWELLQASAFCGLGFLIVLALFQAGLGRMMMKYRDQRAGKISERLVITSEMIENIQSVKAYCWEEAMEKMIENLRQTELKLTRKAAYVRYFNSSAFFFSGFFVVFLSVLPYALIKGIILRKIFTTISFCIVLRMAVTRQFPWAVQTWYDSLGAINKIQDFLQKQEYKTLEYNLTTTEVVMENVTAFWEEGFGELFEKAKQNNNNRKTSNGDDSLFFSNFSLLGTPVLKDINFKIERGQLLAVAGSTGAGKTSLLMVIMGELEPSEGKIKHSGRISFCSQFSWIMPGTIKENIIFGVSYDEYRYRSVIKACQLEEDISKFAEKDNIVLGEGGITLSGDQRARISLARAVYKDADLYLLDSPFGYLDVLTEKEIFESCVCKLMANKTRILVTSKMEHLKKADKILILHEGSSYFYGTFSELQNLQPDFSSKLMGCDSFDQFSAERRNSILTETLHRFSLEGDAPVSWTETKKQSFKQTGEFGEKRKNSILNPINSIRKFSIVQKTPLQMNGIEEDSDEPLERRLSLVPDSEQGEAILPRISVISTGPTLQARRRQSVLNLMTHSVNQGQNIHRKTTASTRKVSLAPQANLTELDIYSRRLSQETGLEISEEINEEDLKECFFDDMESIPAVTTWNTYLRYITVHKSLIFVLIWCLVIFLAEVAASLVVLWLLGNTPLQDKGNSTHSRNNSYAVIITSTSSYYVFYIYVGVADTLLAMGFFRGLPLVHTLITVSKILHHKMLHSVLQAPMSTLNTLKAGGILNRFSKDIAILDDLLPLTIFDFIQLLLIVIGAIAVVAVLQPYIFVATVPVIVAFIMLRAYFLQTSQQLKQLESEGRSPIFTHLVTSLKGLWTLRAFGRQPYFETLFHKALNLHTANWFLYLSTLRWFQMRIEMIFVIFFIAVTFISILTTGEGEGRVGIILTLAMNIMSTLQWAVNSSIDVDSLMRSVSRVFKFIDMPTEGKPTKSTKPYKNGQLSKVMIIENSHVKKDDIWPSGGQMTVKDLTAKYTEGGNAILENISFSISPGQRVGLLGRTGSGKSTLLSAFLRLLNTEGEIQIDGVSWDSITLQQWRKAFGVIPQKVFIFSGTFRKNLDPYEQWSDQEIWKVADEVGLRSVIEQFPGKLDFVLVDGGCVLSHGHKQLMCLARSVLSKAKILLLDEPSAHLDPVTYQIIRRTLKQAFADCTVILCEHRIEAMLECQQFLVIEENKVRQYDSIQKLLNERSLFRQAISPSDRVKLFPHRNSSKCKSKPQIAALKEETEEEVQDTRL
Procedure, shortened: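 Channel opening read as I⁻-driven quenching of a YFP H148Q/I152L/F47L reporter over 7 s post-injection, expressed as 1−F/F0 and fitted against concentration for EC50. Cells were HEK293 co-transfected at seeding with G551D CFTR plus reporter, then grown 24 h at 37 °C, 5% CO2.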

T1 sequence (P13569 with tags, fused parts or gaps DEL508-508): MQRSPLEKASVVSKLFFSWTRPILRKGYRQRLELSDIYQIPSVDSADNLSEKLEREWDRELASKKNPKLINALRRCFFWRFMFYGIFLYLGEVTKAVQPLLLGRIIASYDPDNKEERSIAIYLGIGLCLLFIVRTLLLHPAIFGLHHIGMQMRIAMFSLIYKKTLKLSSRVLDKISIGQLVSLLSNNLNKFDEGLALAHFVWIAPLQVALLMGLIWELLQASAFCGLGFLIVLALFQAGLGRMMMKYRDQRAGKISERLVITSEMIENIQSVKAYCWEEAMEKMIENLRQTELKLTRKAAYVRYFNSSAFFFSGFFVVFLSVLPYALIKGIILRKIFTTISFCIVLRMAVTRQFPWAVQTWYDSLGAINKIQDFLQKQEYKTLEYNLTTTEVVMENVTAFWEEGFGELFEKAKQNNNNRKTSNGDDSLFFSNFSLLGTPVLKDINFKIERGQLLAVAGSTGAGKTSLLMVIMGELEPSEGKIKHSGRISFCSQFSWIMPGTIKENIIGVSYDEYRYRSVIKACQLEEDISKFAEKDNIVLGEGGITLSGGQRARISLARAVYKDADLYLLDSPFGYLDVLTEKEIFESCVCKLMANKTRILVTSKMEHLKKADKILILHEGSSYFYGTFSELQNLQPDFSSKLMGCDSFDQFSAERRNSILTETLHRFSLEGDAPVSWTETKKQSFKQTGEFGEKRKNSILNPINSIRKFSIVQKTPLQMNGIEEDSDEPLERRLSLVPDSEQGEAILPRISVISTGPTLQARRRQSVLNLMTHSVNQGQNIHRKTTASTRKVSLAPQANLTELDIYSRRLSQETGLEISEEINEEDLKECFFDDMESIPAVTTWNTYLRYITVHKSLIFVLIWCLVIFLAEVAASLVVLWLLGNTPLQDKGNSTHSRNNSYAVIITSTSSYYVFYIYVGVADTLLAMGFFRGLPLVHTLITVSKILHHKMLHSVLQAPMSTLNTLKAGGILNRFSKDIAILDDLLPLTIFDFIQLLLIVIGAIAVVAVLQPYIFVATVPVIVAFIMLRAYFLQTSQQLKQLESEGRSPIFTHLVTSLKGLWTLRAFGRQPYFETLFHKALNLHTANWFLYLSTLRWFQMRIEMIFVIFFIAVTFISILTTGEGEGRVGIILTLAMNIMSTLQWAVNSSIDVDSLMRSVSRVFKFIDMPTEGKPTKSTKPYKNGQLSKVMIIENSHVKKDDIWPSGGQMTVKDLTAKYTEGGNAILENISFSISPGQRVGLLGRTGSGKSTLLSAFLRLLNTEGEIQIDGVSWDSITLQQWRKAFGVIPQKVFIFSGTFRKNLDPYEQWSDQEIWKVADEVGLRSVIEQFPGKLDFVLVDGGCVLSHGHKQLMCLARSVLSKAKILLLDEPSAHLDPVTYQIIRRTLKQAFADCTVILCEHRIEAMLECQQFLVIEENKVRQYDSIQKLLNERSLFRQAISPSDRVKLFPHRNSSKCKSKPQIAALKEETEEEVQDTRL

Row | % Activation (CFTR ΔF508 mutant) [%] | EC50 (CFTR ΔF508 mutant) [nM] | % Activation (CFTR G551D mutant) [%] | EC50 (CFTR G551D mutant) [nM] | Compound
1 | 111.0 | 2.9 | 57.6 | 1160 | COc1nc(C(=O)NC[C@H](C)O)c(N)cc1S(=O)(=O)c1ccc(OC(F)(F)F)cc1 [Compound 280, 3-amino-N-[(2S)-2-hydroxypropyl]-6-methoxy-5-{[4-(trifluoromethoxy)phenyl]sulfonyl}pyridine-2-carboxamide]
2 | 91.2 | 179 | 42.7 | > 1670 | Nc1cc(S(=O)(=O)c2ccc(OC(F)(F)F)cc2)cnc1C(=O)NC1COC2(CCCCC2)C1 (centres unmarked) [Compound 149, 3-amino-N-(1-oxaspiro[4.5]dec-3-yl)-5-{[4-(trifluoromethoxy)phenyl]sulfonyl}pyridine-2-carboxamide]
3 | 96.5 | 59.9 | 37.6 | – | Nc1cc(S(=O)(=O)c2ccc(C(F)(F)F)cc2)cnc1C(=O)N[C@@H]1CCC[C@@H]1O [Compound 205, 3-amino-N-[(1R,2S)-2-hydroxycyclopentyl]-5-{[4-(trifluoromethyl)phenyl]sulfonyl}pyridine-2-carboxamide]
4 | 123.3 | 8.5 | 62.6 | 1040 | Nc1cc(S(=O)(=O)c2ccc(C(F)(F)F)cc2)cnc1C(=O)NCC1(O)CC1 [Compound 228, 3-amino-N-[(1-hydroxycyclopropyl)methyl]-5-{[4-(trifluoromethyl)phenyl]sulfonyl}pyridine-2-carboxamide]
5 | 101.0 | 4 | 86.8 | 216 | CC(C)OCC(O)CNC(=O)c1ncc(S(=O)(=O)c2ccc(OC(F)(F)F)cc2)cc1N (centres unmarked) [Compound 90, 3-amino-N-[2-hydroxy-3-(propan-2-yloxy)propyl]-5-{[4-(trifluoromethoxy)phenyl]sulfonyl}pyridine-2-carboxamide]
6 | 98.3 | 41.7 | 71.5 | 1550 | COCCC(C)(O)CNC(=O)c1ncc(S(=O)(=O)c2ccc(C(F)(F)F)cc2)cc1N (centres unmarked) [Compound 167, 3-amino-N-(2-hydroxy-4-methoxy-2-methylbutyl)-5-{[4-(trifluoromethyl)phenyl]sulfonyl}pyridine-2-carboxamide]
7 | 101.5 | 38.8 | 58.4 | 868 | CC(C)OCCNC(=O)c1ncc(S(=O)(=O)c2ccc(C(F)(F)F)cc2)cc1N [Compound 192, 3-amino-N-[2-(propan-2-yloxy)ethyl]-5-{[4-(trifluoromethyl)phenyl]sulfonyl}pyridine-2-carboxamide]
8 | 108.0 | 81.2 | 80.2 | 987 | Nc1cc(S(=O)(=O)c2ccc(OC(F)(F)F)cc2)cnc1C(=O)NCC1CC1 [Compound 155, 3-amino-N-(cyclopropylmethyl)-5-{[4-(trifluoromethoxy)phenyl]sulfonyl}pyridine-2-carboxamide]
9 | 102.2 | 54.1 | 53.2 | 778 | Nc1cc(S(=O)(=O)c2ccc(OC(F)(F)F)cc2)cnc1C(=O)NCC1(CO)CC1 [Compound 22, 3-amino-N-{[1-(hydroxymethyl)cyclopropyl]methyl}-5-{[4-(trifluoromethoxy)phenyl]sulfonyl}pyridine-2-carboxamide]
10 | 118.0 | 3.9 | 106.0 | 391 | CC(C)c1ccc(S(=O)(=O)c2cnc(C(=O)NCC(O)C(F)(F)F)c(N)c2)cc1 (centres unmarked) [Compound 246, 3-amino-5-{[4-(propan-2-yl)phenyl]sulfonyl}-N-(3,3,3-trifluoro-2-hydroxypropyl)pyridine-2-carboxamide]
11 | 103.5 | 2 | 50.4 | 128 | Nc1cc(S(=O)(=O)c2ccc(C(F)(F)F)cc2)cnc1C(=O)N1CC(O)(C(F)(F)F)C1 [Compound 105, (3-amino-5-{[4-(trifluoromethyl)phenyl]sulfonyl}pyridin-2-yl)[3-hydroxy-3-(trifluoromethyl)azetidin-1-yl]methanone]
12 | 97.0 | 107 | 30.2 | > 10000 | Nc1cc(S(=O)(=O)N2CC[C@H](F)C2)cnc1C(=O)NCC(O)C(F)(F)F (stereo partly drawn) [Compound 180, 3-amino-5-{[(3S)-3-fluoropyrrolidin-1-yl]sulfonyl}-N-(3,3,3-trifluoro-2-hydroxypropyl)pyridine-2-carboxamide]
13 | 95.6 | 7.4 | 60.2 | 685 | C[C@H](O)CNC(=O)c1ncc(S(=O)(=O)c2ccc(C(F)(F)F)cc2F)cc1N [Compound 98, 3-amino-5-{[2-fluoro-4-(trifluoromethyl)phenyl]sulfonyl}-N-[(2S)-2-hydroxypropyl]pyridine-2-carboxamide]
14 | 96.4 | 49 | 19.0 | > 10000 | Nc1cc(S(=O)(=O)c2ccc(C(F)(F)F)cc2)cnc1C(=O)NCC1CC1 [Compound 223, 3-amino-N-(cyclopropylmethyl)-5-{[4-(trifluoromethyl)phenyl]sulfonyl}pyridine-2-carboxamide]
15 | 103.0 | 25.4 | 71.5 | 841 | Nc1cc(S(=O)(=O)c2ccc(OC(F)(F)F)cc2)cnc1C(=O)NC[C@H](O)COCC1CC1 [Compound 242, 3-amino-N-[(2S)-3-(cyclopropylmethoxy)-2-hydroxypropyl]-5-{[4-(trifluoromethoxy)phenyl]sulfonyl}pyridine-2-carboxamide]
16 | 97.9 | 11.9 | 44.7 | 399 | CC[C@@H](CO)NC(=O)c1ncc(S(=O)(=O)c2ccc(OC(F)(F)F)cc2)cc1N [Compound 142, 3-amino-N-[(2S)-1-hydroxybutan-2-yl]-5-{[4-(trifluoromethoxy)phenyl]sulfonyl}pyridine-2-carboxamide]
17 | 37.1 | > 667 | 0.3 | – | C[C@H](O)CNC(=O)c1ncc(S(=O)(=O)N2CCCC2CO)cc1N (mixture of isomers) [Compound 268, 3-amino-5-{[2-(hydroxymethyl)pyrrolidin-1-yl]sulfonyl}-N-[(2S)-2-hydroxypropyl]pyridine-2-carboxamide]
18 | 105.0 | 44.1 | 21.3 | > 10000 | C[C@H](O)CNC(=O)c1ncc(S(=O)(=O)N(C)C2CCC2)cc1N [Compound 278, 3-amino-5-[cyclobutyl(methyl)sulfamoyl]-N-[(2S)-2-hydroxypropyl]pyridine-2-carboxamide]
19 | 95.1 | 6.3 | 67.0 | 1620 | C[C@H](O)CNC(=O)c1nc(Oc2cccc(F)c2)c(S(=O)(=O)c2ccc(OC(F)(F)F)cc2)cc1N [Compound 284, 3-amino-6-(3-fluorophenoxy)-N-[(2S)-2-hydroxypropyl]-5-{[4-(trifluoromethoxy)phenyl]sulfonyl}pyridine-2-carboxamide]
20 | 102.0 | 8.2 | 71.5 | 683 | Nc1cc(S(=O)(=O)c2ccc(C(F)(F)F)cc2F)cnc1C(=O)N1CC(F)(F)C1 [Compound 164, (3-amino-5-{[2-fluoro-4-(trifluoromethyl)phenyl]sulfonyl}pyridin-2-yl)(3,3-difluoroazetidin-1-yl)methanone]
21 | 101.0 | 60.9 | 70.0 | 2730 | N#CC1CN(C(=O)c2ncc(S(=O)(=O)c3ccc(OC(F)(F)F)cc3)cc2N)C1 [Compound 61, 1-[(3-amino-5-{[4-(trifluoromethoxy)phenyl]sulfonyl}pyridin-2-yl)carbonyl]azetidine-3-carbonitrile]
22 | 110.4 | 84.7 | 78.7 | 2390 | Nc1cc(S(=O)(=O)c2ccc(OC(F)(F)F)cc2)cnc1C(=O)NCC(O)C1CCOCC1 (centres unmarked) [Compound 35, 3-amino-N-[2-hydroxy-2-(tetrahydro-2H-pyran-4-yl)ethyl]-5-{[4-(trifluoromethoxy)phenyl]sulfonyl}pyridine-2-carboxamide]
23 | 86.7 | 4.2 | 52.5 | 776 | C[C@H](O)CNC(=O)c1nc(NC2CC2)c(S(=O)(=O)c2ccc(OC(F)(F)F)cc2)cc1N [Compound 285, 3-amino-6-(cyclopropylamino)-N-[(2S)-2-hydroxypropyl]-5-{[4-(trifluoromethoxy)phenyl]sulfonyl}pyridine-2-carboxamide]
24 | 88.2 | 3 | 73.2 | 473 | C[C@H](O)CNC(=O)c1nc(C2CC2)c(S(=O)(=O)c2ccc(OC(F)(F)F)cc2)cc1N [Compound 290, 3-amino-6-cyclopropyl-N-[(2S)-2-hydroxypropyl]-5-{[4-(trifluoromethoxy)phenyl]sulfonyl}pyridine-2-carboxamide]
25 | 95.6 | 41.4 | 54.0 | 1820 | C[C@H](O)CCNC(=O)c1ncc(S(=O)(=O)c2ccc(OC(F)(F)F)cc2)cc1N [Compound 53, 3-amino-N-[(3S)-3-hydroxybutyl]-5-{[4-(trifluoromethoxy)phenyl]sulfonyl}pyridine-2-carboxamide]

From patent US10047051B2, “Substituted pyridines and method of use” (AbbVie S.á{acute over (.)}r.l., priority 2015, dated 2018)
